US12325022B2, “Microfluidic device, system, and method for the study of organisms” (ECOLE POLYTECHNIQUE FEDERALE DE LAUSANNE (EPFL), priority 2014, dated 2025)
“Also recorded” adds a separate entry of the source.

Experiments:
wild-type C. elegans [1] = details: sigmoid fit; paralyzed worms between 30 and 40 minutes after tetramisole injection
Protocol: (§1) The aim of the experiment was to correlate the concentration of the drug with the number of paralyzed worms over time, and to trace a dose-response curve for this drug.
(§2) L1 specimens of wild-type C. elegans have been injected in the chip with the above-described protocol and fed them for 2-3 days to get adult worms. […] The wells were plugged in the inlet and sucked with a syringe from the outlet at total outflows between 100-200 nL/s for 40-80 minutes. The procedure was recorded in real-time for all the chambers at the same time by using a stereo-microscope. It was used a suitable ring-shape back-illumination to enhance the contrast and make the adult worms much lighter than the background.
(§3) Image analysis was done afterwards directly on the video recorded: the number of paralyzed worms per chamber were counted every 10 minutes from the beginning of the drug injection, and the total percentage of paralyzed worms per channel (1 channel=1 concentration) was calculated.

wild-type C. elegans [2] = assay: whole plant or invertebrate; details: Caenorhabditis elegans, read-out: EC50 of dose-response curve (mean percentage of paralyzed worms)
Protocol: as §1, §2, §3

[3] = test system: N2 wild-type C. elegans worms and their embryos; assay: on-chip 5-FU treatment of worms with monitoring of embryo development in the incubator array; type: in vivo; details: worms treated on-chip from L4 stage with 2 mM in M9 buffer at 25° C.; embryos monitored for 12 h (array pictures at 600 minutes)
Protocol: Bar graphs are expressed as mean+SEM, *** p≤0.001.
Wild-type worms were isolated in the culture chamber at the L4 larval stage and treated on-chip with 5-FU at a concentration of 2 mM, while being cultured at 25° C. towards the adult stage. Subsequently, embryos were transferred to the incubator array and monitored for 12 h.

Structure (SMILES)	Hill slope of dose-response curve (paralyzed worms) (wild-type C. elegans [1])	EC50 (wild-type C. elegans [2])	development of embryos laid by treated worms [3]
c1ccc(C2CN3CCSC3=N2)cc1 (stereo not drawn) [tetramisole]	about 0.02 μM	~57 µM	–
O=c1[nH]cc(F)c(=O)[nH]1 [5-FU, 5-fluorouracil]	–	–	All embryos prematurely died; also recorded: blocked development
